The values below come from patent US20020071842A1, “Soluble CD1 compositions and uses thereof” (priority 2000, published 2002).

“Also recorded” adds a separate entry of the source.

What all share (test): Plate-bound mCD1d fusion protein hybridoma stimulation assay (IL-2 ELISA)
What all share (assay type): cell-based, mouse
(An ELISA detects its analyte on a solid surface through an enzyme-linked reagent.)

Assay [1] concerns 14S.10.C hybridoma. The note with it: 14S.10 C diverse TCR hybridoma; plate-bound mCD1d-IgGFc2a fusion protein preincubated with lipid antigen. The method in brief:
(§1)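 Protein A plates coated with 400-600 ng/well mCD1d fusion protein and loaded with lipid antigen (40:1 antigen:protein unless specified) in PBS pH 7.2 for 24-48 hr at 37° C, washed, then given 1×10^5 hybridoma cells/well for 16-20 hr at 37° C. Supernatant IL-2 quantified by sandwich ELISA against murine IL-2 standard curve (pg/ml).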

Assay [2] deals with 14S.15.A hybridoma. The settings on record: 14S.15.A diverse TCR hybridoma; plate-bound mCD1d-IgGFc2a fusion protein preincubated with lipid antigen. The method in brief: as §1
For assay [3], the system named is 24.7.C hybridoma. The settings on record: 24 7.C NKT hybridoma; plate-bound mCD1d-IgGFc2a fusion protein preincubated with lipid antigen. The method in brief: as §1
Assay [4] has as its system 24.9.E hybridoma. The note with it: for IL-2 secretion: 24.9 E NKT hybridoma, plate-bound mCD1d-IgGFc2a fusion protein preincubated with lipid antigen. The method in brief: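 IL-2 (pg/ml) by sandwich ELISA, regressed on a murine IL-2 standard curve, reports stimulation of hybridomas (1×10^5/well, 16-20 hr, 37° C) on immobilized mCD1d fusion protein pre-pulsed with lipid, 40:1 molar ratio by default, 24-48 hr at 37° C.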

Assay [5] has as its system DN32D3 hybridoma. The note with it: DN32D3 NKT hybridoma; plate-bound mCD1d-IgGFc2a fusion protein preincubated with lipid antigen. In outline:
as §1

Assay [6] has as its system KT/12 hybridoma. The note with it: KT/12 NKT hybridoma; plate-bound mCD1d-IgGFc2a fusion protein preincubated with lipid antigen. In outline:
as §1

Assay [7] has as its system KT/22 hybridoma. The note with it: KT/22 NKT hybridoma; plate-bound mCD1d-IgGFc2a fusion protein preincubated with lipid antigen. In outline: as §1
Assay [8] deals with KT/23 hybridoma. The note with it: KT/23 NKT hybridoma; plate-bound mCD1d-IgGFc2a fusion protein preincubated with lipid antigen. The method in brief:
as §1

The test system of assay [9] is KT/7 hybridoma. The note with it: KT/7 NKT hybridoma; plate-bound mCD1d-IgGFc2a fusion protein preincubated with lipid antigen. In outline: as §1
Assay [10] relates to VII68 hybridoma. The settings on record: VII68 diverse TCR hybridoma; plate-bound mCD1d-IgGFc2a fusion protein preincubated with lipid antigen. The method in brief:
as §1

The subject of assay [11] is VIII24 hybridoma. The note with it: VIII24 diverse TCR hybridoma; plate-bound mCD1d-IgGFc2a fusion protein preincubated with lipid antigen. The method in brief:
as §1

In assay [12] the test system is Vβ/9 hybridoma. The note with it: Vβ/9 NKT hybridoma; plate-bound mCD1d-IgGFc2a fusion protein preincubated with lipid antigen. In outline:
as §1

Assay [13] relates to XV104 hybridoma. The note with it: XV104 diverse TCR hybridoma; plate-bound mCD1d-IgGFc2a fusion protein preincubated with lipid antigen. The method in brief: as §1

For unglycosylated ceramide, the IL-2 secretion in [1], in [2], in [3], in assay [4], in assay [5] and in assay [6] was 0 (A “0” indicates a mean of less than 50 pg/ml IL-2 was secreted) each time. For the same compound, the IL-2 secretion in [7], in [8], in [9], in assay [10], in [11] and in assay [12] was 0 (A “0” indicates a mean of less than 50 pg/ml IL-2 was secreted) in each case. Also, the IL-2 secretion in assay [13] was 0 (A “0” indicates a mean of less than 50 pg/ml IL-2 was secreted). For the same compound, the “IL-2 response to mCD1d fusion protein pre-treated with purified or synthetic lipid” value (shortened to “IL-2 response”) in assay [4] (24.9.E hybridoma) was “neither the unglycosylated ceramide, nor the closely related β-linked form, β-GalCer, were recognized”.

In the case of β-galactosylceramide [β-GalCer], the IL-2 secretion in [2], in assay [3], in assay [4], in assay [5], in assay [6] and in assay [7] was 0 (A “0” indicates a mean of less than 50 pg/ml IL-2 was secreted) in each case. In addition, the IL-2 secretion in [8], in assay [9], in assay [10], in assay [11], in assay [12] and in assay [13] was 0 (A “0” indicates a mean of less than 50 pg/ml IL-2 was secreted) throughout. Moreover, the “IL-2 response” value in assay [4] (24.9.E hybridoma) is given as “neither the unglycosylated ceramide, nor the closely related β-linked form, β-GalCer, were recognized”.

With `CCCCCCCCCCCCCCCCCCCCCCCCCC(=O)N[C@@H](CO[C@H]1O[C@H](CO)[C@H](O)[C@H](O)[C@H]1O)[C@H](O)[C@H](O)CCCCCCCCCCCCCC` [α-GalCer, α-galactosylceramide], the IL-2 secretion in assay [1] was 0 (A “0” indicates a mean of less than 50 pg/ml IL-2 was secreted); in [2], “+ (“+” indicates 50-250 pg/ml)”; in assay [3], “+++ (“+++” indicates greater than 1000 pg/ml IL-2)”; in [4], “+++ (“+++” indicates greater than 1000 pg/ml IL-2)”; in [5] it was “+++ (“+++” indicates greater than 1000 pg/ml IL-2)”; in assay [6], “+++ (“+++” indicates greater than 1000 pg/ml IL-2)”. Besides, the IL-2 secretion result is given as “+++ (“+++” indicates greater than 1000 pg/ml IL-2)” in assay [7]; “+++ (“+++” indicates greater than 1000 pg/ml IL-2)” in assay [8]; “+++ (“+++” indicates greater than 1000 pg/ml IL-2)” in assay [9]; 0 (A “0” indicates a mean of less than 50 pg/ml IL-2 was secreted) in assay [10]; 0 (A “0” indicates a mean of less than 50 pg/ml IL-2 was secreted) in assay [11]; “++ (“++” indicates 250-1000 pg/ml)” in [12]. Besides, the IL-2 secretion in assay [13] is 0 (A “0” indicates a mean of less than 50 pg/ml IL-2 was secreted). In addition, the “IL-2 response” value in [4] (24.9.E hybridoma) is on record as “responded strongly; also recorded: secreted IL-2 efficiently”. Further, the “enhancement of antigen recognition after pre-incubation at pH 4.0 compared to pH 7.5” value in [4] (24.9.E hybridoma, 3:1 molar ratio of antigen to protein, citrate/phosphate buffer) was “approximately 4 fold”. Besides, the “pre-incubation pH giving maximal IL-2 release” value in assay [4] (24.9.E hybridoma, pH 7.5 to pH 3.0 tested) was found to be 4.0. In assay [4] (24.9.E hybridoma, representative experiment, 19G11 blocking antibody included), the “IL-2 when the 19G11 anti-mCD1d mAb was included” value was found to be 103 pg/mL. Also, the “mean IL-2 produced” value in [4] (24.9.E hybridoma, representative experiment, mCD1d fusion protein pre-treated with antigen) was 2,089 pg/ml.

As to phosphatidylinositol [PI], the IL-2 secretion was 0 (A “0” indicates a mean of less than 50 pg/ml IL-2 was secreted) in [1]; 0 (A “0” indicates a mean of less than 50 pg/ml IL-2 was secreted) in [2]; 0 (A “0” indicates a mean of less than 50 pg/ml IL-2 was secreted) in assay [3]; “+ (“+” indicates 50-250 pg/ml)” in assay [4]; 0 (A “0” indicates a mean of less than 50 pg/ml IL-2 was secreted) in assay [5]; “+ (“+” indicates 50-250 pg/ml)” in assay [6]. Further, the IL-2 secretion result in assay [7] was “+ (“+” indicates 50-250 pg/ml)”; in assay [8], “+ (“+” indicates 50-250 pg/ml)”; in assay [9] it was 0 (A “0” indicates a mean of less than 50 pg/ml IL-2 was secreted); in [10], 0 (A “0” indicates a mean of less than 50 pg/ml IL-2 was secreted); in assay [11] it was 0 (A “0” indicates a mean of less than 50 pg/ml IL-2 was secreted); in assay [12], 0 (A “0” indicates a mean of less than 50 pg/ml IL-2 was secreted). In addition, the IL-2 secretion in [13] is on record as 0 (A “0” indicates a mean of less than 50 pg/ml IL-2 was secreted). For the same compound, in assay [4] (24.9.E hybridoma), the “IL-2 response” value was “only modestly increased IL-2 secretion; also recorded: significantly less IL-2”.
